This is an account of results in US10343903B2, “Cationic polymer coated mesoporous silica nanoparticles and uses thereof” (The Regents of the University of California, priority 2010, dated 2019).

As a reminder, the pKa is the pH at which an ionisable group is half protonated.

For data set [1] the following is noted: cited from earlier work.
For data set [2], the system named is KB-V1 cells. Briefly: Cytotoxicity of Dox formulations in KB-V1 cells (MTS, 72 hrs). The format is cell-based. To be noted: KB-V1, Tariquidar 50 nM. The procedure: To measure cytotoxicity of the different Dox formulations, KB-V1 cells were treated with free Dox, Dox-MSNP, PEI-Dox-MSNP and siRNA-PEI-Dox-MSNP, respectively. For the latter two particle types, incubation time was for 16 hrs before replenishment of the old medium with fresh complete DMEM and performance of a MTS assay at 72 hrs. Based on the absorption readout at 490 nm, the IC50 of free and Dox-loaded MSNP were calculated. The induction of apoptosis at 72 hours was assessed through the use of Annexin V-SYTOX Blue. Briefly, 5×10^5 cells were harvested and stained by FITC-Annexin V-SYTOX Blue working solution (Annexin V, Trevigen; SYTOX Blue, Invitrogen) at room temperature for 15 min. The cells were washed in binding buffer before performance of flow cytometry (Becton Dickinson, Mountain View, Calif.). Date analysis was performed by BD CellQuest. To confirm the flow data in which there may be a minor overlap of Dox with FITC-Annexin V, a TUNEL detection kit was used according to the manufacturer's instructions to confirm the induction of apoptosis. Briefly, 72 hrs following treatment with free Dox or Dox loaded particles, cells were washed, fixed, and permeabilized before TUNEL staining. The number of TUNEL-positive cells was assessed under a fluorescent microscope (200×). At least 3 fields were counted by the same investigator to calculate the percentage of TUNEL positive cells.

Data set [3] deals with KB-31 tumor xenograft. Description: TUNEL staining of the tumor tissue. The format is in vivo, nude mice. To be noted: 4 mg/kg doxorubicin i.v. weekly for 3 weeks. As for the experimental part:
A section of the tumor from each animal was used for TUNEL staining. The slides containing the tumor section were washed, fixed, and permeabilized before performance of TUNEL staining according to the manufacturer's instructions (Invitrogen, Carlsbad, Calif.). Nuclei were stained by Hoechst 33342 dye. The number of TUNEL positive cells (green staining) was assessed under a fluorescent microscope (200×). The same sections were also used for recording of the red fluorescent images of the doxorubicin that was present in the particles or the tissues. At least three fields were counted by the same investigator to calculate the percentage of TUNEL positive cells.

Data set [4] relates to KB-31 tumor xenograft. Description: Tumor growth inhibition by doxorubicin-loaded NP3. To be noted: 4 mg/kg doxorubicin i.v. weekly for 3 weeks, tumor weight at sacrifice. The format is in vivo, nude mice. As for the experimental part: Athymic BALB/c nu/nu female mice (6 weeks) were purchased from the Charles River Laboratory, and maintained under pathogen-free conditions. All animal experiments were performed using protocols approved by the UCLA Animal Research Committee. The tumor cell suspension (0.1 ml, 5×10^6 cells/mL) was injected subcutaneously into the mice. To perform imaging, the tumor-bearing animals were used 2.5 weeks after tumor implantation. In the tumor growth inhibition experiments, the nude mice were randomly divided into 4 groups and received the listed range of treatments, which commenced 1 week after tumor implantation.
Nude mouse studies to determine the effect of doxorubicin-loaded NP3 on tumor shrinkage. One week after tumor implantation, the KB-31 tumor-bearing mice were randomly divided into four groups of five animals each. These groups were used for comparing the effects of saline, empty nanoparticles, free doxorubicin, and doxorubicin-loaded NP3, respectively. The latter group received intravenous administration of 120 mg/kg (˜2.4 mg per animal) NP3, which is equivalent to a doxorubicin dose of 4 mg/kg (˜0.08 mg per animal), weekly for 3 weeks. […] The body weight and tumor size were accurately recorded twice per week. Tumor weight was calculated according to the formula: Tumor weight (mg)=(length in mm)× (width in mm)^2/2 (Meng et al., ACS Nano, vol. 4, pp. 2773-2783, 2010).

The subject of a further data set is KB-31 cells. Description: MTS cytotoxicity of free Dox, KB-31. The class given is cell-based. To be noted: KB-31, free Dox, 72 hrs. As for the experimental part: (§1) KB-31 and KB-V1 cells were plated at 1×10^4 cells per well in 96 well plate. The cells were treated with free Dox in solution in doses ranging from 0.05-3.2 μg/ml (KB-31) and 0.1-64 μg/ml (KB-V1) for 72 hrs. The cell viability was determined by the MTS assay. The treated cells were incubated with MTS working solution for 2-3 hrs before measurement. The mean absorbance of non-exposed cells served as the reference value for calculating 100% cellular viability. To view Pgp expression, the cells were washed in PBS and the pellets lysed in a buffer containing Triton X-100 and protease inhibitors after centrifugation. The protein content of the supernatants was determined by the Bradford method. 100 μg total protein was electrophoresed by 10% SOS-PAGE and transferred to a PVDF membrane. After blocking, the membranes were incubated with 1:1000 dilution of primary monoclonal antibody to MDR1 (anti-Pgp C219, Abeam). The membranes were overlayed with goat anti-mouse secondary antibody (1:1000 dilution) before the addition of the HRP-conjugated streptavidin-biotin complex. The proteins were detected using ECL reagent according to the manufacturer's instructions.

Data set [5] in a line: Blood biochemistry to assess possible toxicity (Example 8). To be noted: serum, tumor-bearing nude mice, weekly i.v. for 3 weeks, day 21. The format is in vivo. As for the experimental part:
(§2) Nude mouse studies to determine the effect of doxorubicin-loaded NP3 on tumor shrinkage. One week after tumor implantation, the KB-31 tumor-bearing mice were randomly divided into four groups of five animals each. These groups were used for comparing the effects of saline, empty nanoparticles, free doxorubicin, and doxorubicin-loaded NP3, respectively. The latter group received intravenous administration of 120 mg/kg (˜2.4 mg per animal) NP3, which is equivalent to a doxorubicin dose of 4 mg/kg (˜0.08 mg per animal), weekly for 3 weeks. The free doxorubicin group received the same drug dose weekly for 3 weeks, while the group receiving empty NP3 was treated with 120 mg/kg on a weekly basis. The fourth group was treated with saline as control. The body weight and tumor size were accurately recorded twice per week. Tumor weight was calculated according to the formula: Tumor weight (mg)=(length in mm)× (width in mm)^2/2 (Meng et al., ACS Nano, vol. 4, pp. 2773-2783, 2010).
Following the animal experiments described above, the mice were sacrificed on 21st day and serum collected by centrifuging the whole blood at 5,000 rpm for 15 min. The biochemical parameters, including cholesterol (CHOL), triglycerides (TRG), alanine aminotransferase (ALT), aspartate aminotransferase (AST), total bilirubin (TBILI), glucose (GLU), inorganic phosphorus (PHOS), total protein (TPR), calcium (CAL), blood urea nitrogen (BUN), creatinine (CRE), and albumin (ALB) were assayed by UCLA Division of Laboratory Animal Medicine (DLAM) diagnostic laboratory services.

Data set [6] can be described thus: Body weight and major organ histology (Example 8). The format is in vivo, nude mice. To be noted: weekly i.v. for 3 weeks. As for the experimental part:
as §2
Appropriate size sections of the tumor, liver, kidney, spleen, lung, heart, and brain were fixed in 10% formalin and then embedded into paraffin. Tissue sections of 4 μm thickness were mounted on glass slides by the UCLA Division of Laboratory Animal Medicine (DLAM) diagnostic laboratory services. The sections were stained with hematoxylin-eosin (H&E) and examined by light microscopy. The slides were read by an experienced veterinary pathologist.

Data set [7] relates to KB-V1 cells. Description: MTS cytotoxicity of free Dox, KB-V1. The class given is cell-based. To be noted: 72 hrs. The procedure:
as §1

Consider `CCOc1ccc(-c2nc3ccc(-c4nc5ccc(N6CCN(C)CC6)cc5[nH]4)cc3[nH]2)cc1` [Hoechst 33342], for which the pKa in data set [1] was 11.9.

`COc1cc2c(cc1OC)CN(CCc1ccc(NC(=O)c3cc(OC)c(OC)cc3NC(=O)c3cnc4ccccc4c3)cc1)CC2` [Tariquidar]: the “effect of co-administration with free Dox on drug sensitivity” value in the data set on KB-V1 cells [2] was “partially restores drug sensitivity”.

On to `COc1cccc2c1C(=O)c1c(O)c3c(c(O)c1C2=O)C[C@@](O)(C(=O)CO)C[C@@H]3O[C@H]1C[C@H](N)[C@H](O)[C@H](C)O1.Cl` [Free Dox, doxorubicin hydrochloride], for which the “TUNEL-positive cells in tumor tissue” value in the data set on KB-31 tumor xenograft [3] is listed as around 13%. This compound yielded a tumor inhibition with KB-31 tumor xenograft [4] of 70%. The “IC50 (MTS)” value in the data set with KB-31 cells turned out to be 0.21 µg/mL. The pKa in data set [1] was 8.2. Moreover, in data set [5], the ALB was found to be 2.4 ± 0.2 g/dL, the ALT is recorded as 36.8 ± 8.0 u/L, the AST is 347.8 ± 73.9 U/L and the BUN worked out at 17.3 ± 2.6 mg/dL. Moreover, in data set [5], the CAL came out at 9.0 ± 0.5 mg/dL, the CHOL is given as 97.8 ± 12.8 mg/dL, the CRE was 0.3 ± 0.1 mg/dL and the GLU was found to be 102.5 ± 29.2 mg/dL. Also, in data set [5], the PHOS was determined as 9.5 ± 0.8 mg/dL, the TBIL was determined as 0.4 ± 0.0 mg/dL, the TPR is reported as 5.0 ± 0.4 g/dL and the TRG amounted to 91.5 ± 21.2 mg/dL. Also, in data set [6] (H&E), the kidney histology result is “glomerular swelling” and the liver histology entry is “prominent hepatic steatosis”. Also, in data set [6] (compared to saline), the body weight entry is listed as “cyclical decrease in body weight”. In the data set on KB-V1 cells [7], the “IC50 (MTS)” value came out at 53.0 µg/mL.
